Experiment: Second study: NAD in tissues, oral (pegylated)NAD-Mg-GA vs injectable NAD
Format: in vivo
Settings: group 2 (IP injectable NAD) vs group 1 (oral (pegylated)NAD-Mg-GA), healthy rats

- More NAD levels in the heart compared to group 1: 11%
Compound: NC(=O)c1ccc[n+]([C@@H]2O[C@H](COP(=O)([O-])OP(=O)(O)OC[C@H]3O[C@@H](n4cnc5c(N)ncnc54)[C@H](O)[C@@H]3O)[C@@H](O)[C@H]2O)c1 [injectable NAD, Nicotinamide Adenine Dinucleotide]

From US20250345440A1, “METAL-ORGANIC FRAMEWORK MATERIALS AND USES OF THE METAL-ORGANIC FRAMEWORK MATERIALS” (MOF Science, LLC, priority 2024, published 2025)
